The target in one test is human ACC1 (Homo sapiens, UniProt Q13085). Put plainly: Acetyl CoA carboxylase (ACC) activity inhibition test, human ACC1. The format is biochemical. As to conditions: 1 μmol/liter compound; read-out: Inhibition (%) by 1 μmol/liter Chemical, human ACC1. The procedure:
(§1) A. Pharmacological Test Example (Acetyl CoA Carboxylase (ACC) Activity Inhibition Test)
(§2) A test compound is dissolved in dimethyl sulfoxide (DMSO) to a concentration of 10 mM and then diluted with DMSO to give a 100-fold concentrated solution of the compound compared with target assay concentration. The ACC enzyme activity inhibition test is carried out according to a modification of Thampy & Wakil's method (J. Biol. Chem., Vol. 260, pp. 6318-6323 (1985)). Concretely, 0.8 μl of the diluted test compound is added to each well of 96-well assay plate (Perkin Elmer Opti Plate), then 40 μl of a substrate solution (50 mM Hepes sodium (pH 7.5), 2 mM DTT, 10 mM ATP, 500 μM acetyl CoA, 0.17 mM NaH[^14C]O3 (58 mCi/mmol by Amersham), 8 mM NaHCO3) is added to each well, and 40 μL of an enzyme solution (1 to 2 nM human ACC1 or human ACC2, 50 mM Hepes sodium (pH 7.5), 2 mM DTT, 40 mM MgCl2, 40 mM tripotassium citrate 1 mg/ml fetal bovine serum albumin) is added thereto. Then, the upper side of the plate is sealed up, and the plate is incubated with gently stirring at 37° C. for 40 minutes. Next, 20 μl of 1 N HCl is added to each well to stop the enzyme reaction, and the assay plate is stirred overnight to remove the unreacted NaH[^14C]O3. Next, 100 μl of a scintillator (Perkin Elmer's Microscinti 40) is added to each well and the plate is stirred, then the radioactivity of the fixed [^14C] is counted using a microplate scintillation counter (Perkin Elmer's Topcount), the radioactivity of which represents the enzyme activity in each well. The human ACC1 and human ACC2 enzyme-inhibition activities of the test compounds are calculated, based on the radioactivity of the well added by DMSO without test compound as a control.

The target in a further test is human ACC2 (Homo sapiens, UniProt O00763). Put plainly: Acetyl CoA carboxylase (ACC) activity inhibition test, human ACC2. As to conditions: 1 μmol/liter compound; read-out: Inhibition (%) by 1 μmol/liter Chemical, human ACC2. It is filed as biochemical. The procedure:
as §1, §2

Chain of human ACC2 (O00763 whole entry): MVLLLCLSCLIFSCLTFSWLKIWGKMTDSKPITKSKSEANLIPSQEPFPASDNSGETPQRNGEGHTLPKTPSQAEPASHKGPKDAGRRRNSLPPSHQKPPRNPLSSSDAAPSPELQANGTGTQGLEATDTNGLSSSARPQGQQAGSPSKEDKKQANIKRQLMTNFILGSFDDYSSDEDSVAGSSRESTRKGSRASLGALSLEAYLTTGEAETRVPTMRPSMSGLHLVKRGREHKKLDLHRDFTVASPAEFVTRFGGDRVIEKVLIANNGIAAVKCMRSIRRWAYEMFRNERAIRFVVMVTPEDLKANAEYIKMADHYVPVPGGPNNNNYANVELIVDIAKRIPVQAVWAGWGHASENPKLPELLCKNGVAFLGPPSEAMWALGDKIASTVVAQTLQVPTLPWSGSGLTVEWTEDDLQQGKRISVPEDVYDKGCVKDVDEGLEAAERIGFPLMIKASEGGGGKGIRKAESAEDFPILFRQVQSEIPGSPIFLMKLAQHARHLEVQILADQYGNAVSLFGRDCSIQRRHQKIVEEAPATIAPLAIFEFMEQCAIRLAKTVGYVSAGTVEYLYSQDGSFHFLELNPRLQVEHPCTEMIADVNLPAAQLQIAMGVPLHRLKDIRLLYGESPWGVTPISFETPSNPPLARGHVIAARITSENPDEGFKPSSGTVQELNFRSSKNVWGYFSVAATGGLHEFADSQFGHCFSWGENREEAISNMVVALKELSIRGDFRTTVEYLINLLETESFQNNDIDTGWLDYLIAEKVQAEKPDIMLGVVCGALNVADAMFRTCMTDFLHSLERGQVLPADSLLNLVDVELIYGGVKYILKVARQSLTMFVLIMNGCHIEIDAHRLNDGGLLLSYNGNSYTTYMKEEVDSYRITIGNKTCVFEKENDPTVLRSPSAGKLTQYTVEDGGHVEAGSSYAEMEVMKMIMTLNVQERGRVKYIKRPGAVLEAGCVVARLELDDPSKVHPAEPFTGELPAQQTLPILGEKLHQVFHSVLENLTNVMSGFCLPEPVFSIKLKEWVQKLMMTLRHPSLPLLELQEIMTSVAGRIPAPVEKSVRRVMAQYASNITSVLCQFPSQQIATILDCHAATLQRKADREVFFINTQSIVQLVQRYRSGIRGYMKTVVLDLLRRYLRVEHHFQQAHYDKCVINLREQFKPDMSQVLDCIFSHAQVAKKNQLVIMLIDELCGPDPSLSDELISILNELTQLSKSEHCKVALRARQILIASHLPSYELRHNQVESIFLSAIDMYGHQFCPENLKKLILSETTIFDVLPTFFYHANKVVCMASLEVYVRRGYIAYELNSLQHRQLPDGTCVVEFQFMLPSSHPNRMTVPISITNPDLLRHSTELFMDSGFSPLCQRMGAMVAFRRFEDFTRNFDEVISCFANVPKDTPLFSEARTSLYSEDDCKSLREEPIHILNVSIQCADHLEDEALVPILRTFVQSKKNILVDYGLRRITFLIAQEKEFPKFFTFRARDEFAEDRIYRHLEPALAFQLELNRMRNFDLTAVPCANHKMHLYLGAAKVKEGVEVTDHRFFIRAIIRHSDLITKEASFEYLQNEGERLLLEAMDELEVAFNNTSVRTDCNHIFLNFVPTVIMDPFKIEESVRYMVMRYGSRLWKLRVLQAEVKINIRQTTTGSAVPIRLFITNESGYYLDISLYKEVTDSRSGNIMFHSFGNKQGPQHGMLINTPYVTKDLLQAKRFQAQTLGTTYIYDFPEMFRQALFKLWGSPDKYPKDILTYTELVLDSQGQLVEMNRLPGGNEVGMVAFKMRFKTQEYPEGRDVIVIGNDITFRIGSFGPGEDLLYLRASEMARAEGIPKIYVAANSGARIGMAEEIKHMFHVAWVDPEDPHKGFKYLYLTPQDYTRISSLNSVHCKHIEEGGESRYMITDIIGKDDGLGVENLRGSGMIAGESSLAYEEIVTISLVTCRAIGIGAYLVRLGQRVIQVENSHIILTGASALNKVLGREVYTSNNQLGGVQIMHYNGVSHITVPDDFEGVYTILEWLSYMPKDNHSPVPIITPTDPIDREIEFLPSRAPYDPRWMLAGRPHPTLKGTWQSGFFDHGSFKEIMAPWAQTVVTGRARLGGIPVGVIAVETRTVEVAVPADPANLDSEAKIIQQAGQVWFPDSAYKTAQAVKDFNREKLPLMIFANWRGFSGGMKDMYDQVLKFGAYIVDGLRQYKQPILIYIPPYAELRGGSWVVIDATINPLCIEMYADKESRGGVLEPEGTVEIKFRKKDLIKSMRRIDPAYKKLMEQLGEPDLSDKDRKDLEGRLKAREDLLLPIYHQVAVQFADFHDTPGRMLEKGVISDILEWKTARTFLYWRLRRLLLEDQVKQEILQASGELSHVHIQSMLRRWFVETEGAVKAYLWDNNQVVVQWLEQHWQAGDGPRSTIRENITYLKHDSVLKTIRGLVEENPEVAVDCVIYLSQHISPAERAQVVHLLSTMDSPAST

As to `CCOc1cc(C(=O)N2CCC3(CC2)CC(=O)c2cc(-c4ccc(C(N)=O)cc4)ccc2O3)cc(OCC)c1-c1ccc(C(=O)O)cc1` [Example 3, 4′-({6-(4-Carbamoylphenyl)-4-oxospiro[chroman-2,4′-piperidin]-1′-yl}carbonyl)-2′,6′-diethoxybiphenyl-4-carboxylic acid], the inhibition at 1 µM on human ACC1 came out at 100%; on human ACC2 it was 99%.
`CCOc1cc(C(=O)N2CCC3(CC2)CC(=O)c2cc(-c4cnn(C)c4)ccc2O3)cc(OCC)c1-c1ccc(C(=O)O)cc1` [Example 18, Sodium 2′,6′-diethoxy-4′-{[6-(1-methyl-1H-pyrazol-4-yl)-4-oxospiro[chroman-2,4′piperidin]-1′-yl]carbonyl}biphenyl-4-carboxylate]: the inhibition at 1 µM came to 99% at human ACC1 and 100% at human ACC2.
Consider `CCOc1cc(C(=O)N2CCC3(CC2)CC(=O)c2cc(-c4ccc(C(N)=O)cn4)ccc2O3)cc(OCC)c1-c1ccc(C(=O)O)cc1` [Example 5], for which the figures for the inhibition at 1 µM on human ACC1 and on human ACC2 were 98% and 99%, respectively.
For `Cc1nn(-c2ccc(C(=O)O)cc2)c2ccc(C(=O)N3CCC4(CC3)CC(=O)c3cc(-c5cnn(C)c5)ccc3O4)cc12` [Example 13, 4-(3-Methyl-5-{[6-(1-methyl-1H-pyrazol-4-yl)-4-oxospiro[chroman-2,4′-piperidin]-1′-yl]carbonyl}-1H-indazol-1-yl)benzoic acid], in that order: 99% and 99%.
`CCOc1cc(C(=O)N2CCC3(CC2)CC(=O)c2cc(-c4cnn(C)c4)ccc2O3)cc(OCC)c1-c1cncc(C(=O)O)c1` [Example 21, 5-(2,6-Diethoxy-4-{[6-(1-methyl-1H-pyrazol-4-yl)-4-oxospiro[chroman-2,4′-piperidin]-1′-yl]carbonyl}phenyl)nicotinic acid]: the inhibition at 1 µM at human ACC1 and on human ACC2 was 100% each time.
As for `CCOc1cc(C(=O)N2CCC3(CC2)CC(=O)c2cc(-c4cnn(C)c4)ccc2O3)cc(OCC)c1-c1cccc(C(=O)O)c1` [Example 20, Sodium 2′,6′-diethoxy-4′-{[6-(1-methyl-1H-pyrazol-4-yl)-4-oxospiro[chroman-2,4′-piperidin]-1′-yl]carbonyl}biphenyl-3-carboxylate], the inhibition at 1 µM at human ACC1 is 100%; at human ACC2 it was 99%.
